From patent US8088806B2 (Achillion Pharmaceuticals, Inc., priority 2005, dated 2012)

System: HCV replicon
Assay: Replicon based assay of HCV replication inhibition (NPT ELISA)
Format: cell-based, Hepatitis C virus
Details: Hepatitis C virus, Huh-7, 72 h, Table I; Huh-7 HCV replicon-containing cells, three days; read-out: Activity
Procedure, shortened: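 Huh-7 cells carrying a bicistronic HCV replicon (neo, EMCV-IRES-driven NS3–NS5B) treated overnight after seeding with usually 6 concentrations, 10 to 0.03 micromolar, for three days at 37° C without G418. Replication read as NPT level by captured ELISA; matched-DMSO wells and interferon alpha as controls.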

Row | SMILES | EC50 [µM]
1 | Cc1nccc(-c2cccc(Nc3nc(-c4cccnc4)cs3)c2)n1 [compound 105, N-(3-(2-methylpyrimidin-4-yl)phenyl)-4-(pyridin-3-yl)thiazol-2-amine] | > 10
2 | CC(C)N(c1ccccc1)c1ccc(Nc2nc(-c3cccnc3)cs2)cc1 [compound 106, N1-isopropyl-N1-phenyl-N4-(4-(pyridin-3-yl)thiazol-2-yl)benzene-1,4-diamine] | > 10
3 | CCCCOC(=O)c1ccc(Nc2nc(-c3cccnc3)cs2)cc1 [compound 107, butyl 4-(4-(pyridin-3-yl)thiazol-2-ylamino)benzoate] | > 10
4 | CCOC(=O)C1CCN(Cc2cccc(Nc3nc(-c4cccnc4)cs3)c2)CC1 [compound 108, ethyl 1-(3-(4-(pyridin-3-yl)thiazol-2-ylamino)benzyl)piperidine-4-carboxylate] | > 10
5 | CCOC(=O)Cc1ccc(Nc2nc(-c3cccnc3)cs2)cc1 [compound 109, ethyl 2-(4-(4-(pyridin-3-yl)thiazol-2-ylamino)phenyl)acetate] | > 10
6 | CCCc1ccc(Nc2nc(-c3cccnc3)cs2)cc1 [compound 110, N-(4-propylphenyl)-4-(pyridin-3-yl)thiazol-2-amine] | > 10
7 | CC(C)(C)c1ccc(NC(=O)c2nc(-c3cccnc3)cs2)cc1 [compound 111, N-(4-tert-butylphenyl)-4-(pyridin-3-yl)thiazole-2-carboxamide] | > 10
8 | CCCCCOc1ccc(NC(=O)c2nc(-c3cccnc3)cs2)cc1C(F)(F)F [compound 112, N-(3-(trifluoromethyl)-4-(pentyloxy)phenyl)-4-(pyridin-3-yl)thiazole-2-carboxamide] | > 10
9 | CCCCCOc1ccc(NC(=O)c2nc(-c3cccnc3)cs2)cc1 [compound 113, N-(4-(pentyloxy)phenyl)-4-(pyridin-3-yl)thiazole-2-carboxamide] | > 10
10 | O=C(Nc1ccc(OCc2ccccc2)cc1)c1nc(-c2cccnc2)cs1 [compound 114] | > 10
11 | O=C(Nc1ccc(Oc2ccc(Cl)cc2)cc1)c1nc(-c2cccnc2)cs1 [compound 115, N-(4-(4-chlorophenoxy)phenyl)-4-(pyridin-3-yl)thiazole-2-carboxamide] | > 10
12 | CCCCCOc1ccc(N(C(C)=O)c2nc(-c3ccc(F)cc3)cs2)cc1C(F)(F)F [compound 116, N-(3-(trifluoromethyl)-4-(pentyloxy)phenyl)-N-(4-(4-fluorophenyl)thiazol-2-yl)acetamide] | < 1
13 | CCCCCOc1ccc(Nc2ncc(-c3ccccc3)s2)cc1C(F)(F)F [compound 117, N-(3-(trifluoromethyl)-4-(pentyloxy)phenyl)-5-phenylthiazol-2-amine] | < 1
14 | Fc1ccc(Nc2nc(C(F)(F)F)c(-c3cccc(Cl)c3)s2)cc1 [compound 118, 5-(3-chlorophenyl)-4-(trifluoromethyl)-N-(4-fluorophenyl)thiazol-2-amine] | > 10
15 | COc1ccc(Nc2nc(-c3ccccc3)c(-c3ccccc3)s2)cc1 [compound 119, N-(4-methoxyphenyl)-4,5-diphenylthiazol-2-amine] | < 1
16 | CCN(CC)S(=O)(=O)c1ccc(-c2csc(Nc3ccc(Br)cc3)n2)cc1 [compound 120, N-(4-bromophenyl)-4-diethylaminosulfonyl-phenyl-2-amine] | > 10
17 | COc1ccc(Nc2nc(-c3ccc(OCc4ccc(Br)cc4)cc3)cs2)cc1 [compound 122, 4-(4-(4-bromobenzyloxy)phenyl)-N-(4-methoxyphenyl)thiazol-2-amine] | > 10
18 | O=C(Nc1ccc(Cl)c(Cl)c1)c1nc(-c2cccnc2)cs1 [compound 123, N-(3,4-dichlorophenyl)-4-(pyridin-3-yl)thiazole-2-carboxamide] | > 10
19 | CN(C(=O)c1nc(-c2cccnc2)cs1)c1ccc(Cl)c(Cl)c1 [compound 124, N-(3,4-dichlorophenyl)-N-methyl-4-(pyridin-3-yl)thiazole-2-carboxamide] | > 10
